# Results published in patent US20200369626A1 (Washington University, priority 2019, published 2020).
# Target: T1, S1PR2 (Homo sapiens, UniProt O95136)
# T1 construct: purchased
# Assay: competitive [^32P]S1P binding assay on cell membranes, S1PR2
# Conditions: Table 5; read-out: IC50 S1PR2
# Protocol: The test compounds were dissolved in DMSO and diluted into test samples with increasing concentrations with assay buffer. Commercial cell membranes expressing recombinant human S1PR were diluted with assay buffer to make a 20-40 μg/mL of solution. […] The plate was incubated for 60 min at room temperature with shaking and terminated by collecting the membranes onto 96-well glass fiber (GF/B) filtration plates (Millipore, Billerica, Mass.). Each filter was washed with 200 μL of assay buffer for a total of five washes. […] The IC50 values were fitted from GraphPad Prism 6 using one site Nonlinear Regression.
# T1 sequence (O95136 whole entry): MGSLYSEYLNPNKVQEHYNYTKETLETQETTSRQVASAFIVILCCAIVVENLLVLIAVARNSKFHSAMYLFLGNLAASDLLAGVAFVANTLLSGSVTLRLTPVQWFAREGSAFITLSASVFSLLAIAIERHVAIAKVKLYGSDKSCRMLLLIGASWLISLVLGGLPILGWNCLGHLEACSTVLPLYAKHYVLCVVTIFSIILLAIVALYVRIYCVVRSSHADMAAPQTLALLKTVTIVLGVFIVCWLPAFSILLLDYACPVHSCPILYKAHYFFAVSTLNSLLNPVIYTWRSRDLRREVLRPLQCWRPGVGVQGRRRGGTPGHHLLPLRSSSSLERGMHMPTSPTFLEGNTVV
row,Compound,IC50 [nM]
1,CC(C)CC1(O)CCN(c2nc3cc(Oc4ccc(F)cc4)cc([N+](=O)[O-])c3o2)CC1 [TZ57-045],> 1000
2,CS(=O)(=O)c1ccc(Oc2nc(NC(=O)N3CCc4ccccc4C3)nc(C(F)(F)F)n2)cc1 [TZ57-047],> 1000
3,CCC(CC)CC1(OC)CCN(C(=O)Nc2cc(Oc3ccc(F)cc3)cc(Oc3ccc(S(C)(=O)=O)cc3)c2)CC1 [TZ57-054],> 1000
4,CS(=O)(=O)c1ccc(Oc2cc(NC(=O)N(CCO)C3CCCCC3)cc(Oc3ccc(F)cc3)c2)cc1 [TZ57-062],> 1000
5,CC(C)C(=O)C1CCN(C(=O)Nc2cc(Oc3ccc(F)cc3)cc(Oc3ccc(S(C)(=O)=O)cc3)c2)CC1 [TZ57-063],> 1000
6,CC(C)C(O)C1CCN(C(=O)Nc2cc(Oc3ccc(F)cc3)cc(Oc3ccc(S(C)(=O)=O)cc3)c2)CC1 (stereo not drawn) [TZ57-065],> 1000
7,CCC(CC)CC1(O)CCN(C(=O)Nc2cc(Oc3ccc(F)cc3)cc(OC3CCN(C(C)=O)CC3)c2)CC1 [TZ57-080],> 1000
8,CCC(CC)CC1(O)CCN(C(=O)Nc2cc(Oc3ccc(F)cc3)cc(OC3CCN(S(C)(=O)=O)CC3)c2)CC1 [TZ57-081],292 ± 121
9,CS(=O)(=O)c1ccc(Oc2cc(NC(=O)N3CC[C@@]4(O)CCCC[C@H]4C3)cc(Oc3ccc(F)cc3)c2)cc1 [TZ57-091],> 1000
10,CNC(=O)c1ccc(Oc2cc(NC(=O)N3CC[C@@]4(O)CCCC[C@H]4C3)cc(Oc3ccc(F)cc3)c2)cc1 [TZ57-096],> 1000
11,CCC(CC)CC1(O)CCN(C(=O)Nc2ccc(Oc3ccc(F)cc3)cc2)CC1 [TZ57-103],> 1000
12,CCC(CC)CC1(O)CCN(C(=O)Nc2ccc(Oc3ccc(S(C)(=O)=O)cc3)cc2)CC1 [TZ57-104],> 1000
13,CC(C)CC1(O)CCN(C(=O)Nc2ccc(NC(=O)N3CCC(O)(CC(C)C)CC3)cc2)CC1 [TZ57-112],> 1000
14,CC(C)CC1(O)CCN(C(=O)Nc2cccc(NC(=O)N3CCC(O)(CC(C)C)CC3)c2)CC1 [TZ57-115],> 1000
15,CC(C)CC1(O)CN(C(=O)Nc2cc(Oc3ccc(F)cc3)cc(Oc3ccc(S(C)(=O)=O)cc3)c2)C1 [TZ57-119],> 1000
16,CC(C)CC1(O)CCN(C(=O)Nc2cc(Oc3ccc(F)cc3)cc(Oc3ccc(S(C)(=O)=O)cc3)c2)C1 (stereo not drawn) [TZ57-120],122 ± 29
17,CC(C)CC1(O)CC(C(=O)Nc2cc(Oc3ccc(F)cc3)cc(Oc3ccc(S(C)(=O)=O)cc3)c2)C1 (stereo not drawn) [TZ57-121],654 ± 349
18,CNC(=O)c1ccc(Oc2cc(NC(=O)N3CCC(O)(CC(C)C)C3)cc(Oc3ccc(F)cc3)c2)cc1 (stereo not drawn) [TZ57-122],77 ± 16
19,CCC(CC)CC1(O)CCN(C(=O)Nc2cc(Oc3ccc(B4OC(C)(C)C(C)(C)O4)cc3)cc(Sc3ccc(S(C)(=O)=O)cc3)c2)CC1 [TZ57-150],> 1000
20,CCC(CC)CC1(O)CCN(C(=O)Nc2cc(Oc3ccc(S(C)(=O)=O)cc3)cc(Sc3ccc(F)cc3)c2)CC1 [TZ57-155],143 ± 30
21,CCC(CC)CC1(O)CCN(C(=O)Nc2cc(Sc3ccc(F)cc3)cc(Sc3ccc(S(C)(=O)=O)cc3)c2)CC1 [TZ57-158],67 ± 10

row,Compound,IC50 [nM]
1,CCC(CC)CC1(O)CCN(C(=O)Nc2cc(C)cc(Oc3ccc(S(C)(=O)=O)cc3)c2)CC1 [TZ59-008],> 1000
2,CCC(CC)CC1(O)CCN(C(=O)Nc2cc(C#N)cc(Oc3ccc(S(C)(=O)=O)cc3)c2)CC1 [TZ59-014],> 1000
3,CCC(CC)CC1(O)CCN(C(=O)Nc2cc(C(C)C)c3c(C)nn(C)c3n2)CC1 [TZ59-023],> 1000
4,CCC(CC)CC1(O)CCN(C(=O)Nc2cc(NC(=O)N3CCC(O)(CC(CC)CC)CC3)cc(C(F)(F)F)c2)CC1 [TZ59-039],> 1000
5,CCC(CC)CC1(O)CCN(C(=O)Nc2cc(F)cc(C(F)(F)F)c2)CC1 [TZ59-042],> 1000
6,CCC(CC)CC1(O)CCN(C(=O)Nc2cc(OCCF)cc(C(F)(F)F)c2)CC1 [TZ59-044],> 1000
7,CCC(CC)CC1(O)CCN(C(=O)Nc2cc(OC)cc(C(F)(F)F)c2)CC1 [TZ59-046],> 1000
8,CCC(CC)CC1(O)CCN(C(=O)Nc2cc(N(C(=O)OC(C)(C)C)c3ccc(S(C)(=O)=O)cc3)cc(C(F)(F)F)c2)CC1 [TZ59-061],> 1000
9,CCC(CC)CC1(O)CCN(C(=O)Nc2cc(Nc3ccc(S(C)(=O)=O)cc3)cc(C(F)(F)F)c2)CC1 [TZ59-062],> 1000
10,CCC(CC)CC1(O)CCN(C(=O)Nc2cc(F)cc(C(O)c3ccc(S(C)(=O)=O)cc3)c2)CC1 (stereo not drawn) [TZ59-080],> 1000
11,CCC(CC)CC1(O)CCN(C(=O)Nc2cc(C(=O)c3ccc(C(=O)NC)cc3)cc(C(F)(F)F)c2)CC1 [TZ59-089],> 1000
12,CCC(CC)CC1(O)CCN(C(=O)Nc2cc(C(=O)c3ccc(S(C)(=O)=O)cc3)cc(C(F)(F)F)c2)CC1 [TZ59-092],700 ± 111
13,CCC(CC)CC1(O)CCN(C(=O)Nc2cc(C(=O)c3ccc(S(C)(=O)=O)cc3)cc(C(F)(F)F)c2)CC1 [TZ59-093],> 1000
14,COc1ccc(-n2c(=O)c3ccccc3n(CC(=O)Nc3cc(Cl)c(OC)cc3OC)c2=O)cc1 [TZ59-110],> 1000
15,"COc1cc(OC)c(NC(=O)Cn2c(=O)n(CC(=O)Nc3cc(Cl)nc(Cl)c3)c(=O)c3ccccc32)cc1Cl [TZ59-112, N-(5-Chloro-2,4-dimethoxyphenyl)-2-(3-(2-((2,6-dichloropyridin-4-yl)amino)-2-oxoethyl)-2,4-dioxo-3,4-dihydroquinazolin-1(2H)-yl)acetamide]",> 1000
16,"COc1cc(OC)c(NC(=O)Cn2c(=O)n(CC(=O)Nc3ccc(O)cc3)c(=O)c3ccccc32)cc1Cl [TZ59-124, N-(5-Chloro-2,4-dimethoxyphenyl)-2-(3-(2-((4-hydroxyphenyl)amino)-2-oxoethyl)-2,4-dioxo-3,4-dihydroquinazolin-1(2H)-yl)acetamide]",2.6 ± 0.3
17,"COc1cc(OC)c(NC(=O)Cn2c(=O)n(CC(=O)NCCO)c(=O)c3ccccc32)cc1Cl [TZ59-130, N-(5-Chloro-2,4-dimethoxyphenyl)-2-(3-(2-((2-hydroxyethyl)amino)-2-oxoethyl)-2,4-dioxo-3,4-dihydroquinazolin-1(2H)-yl)acetamide]",66.6 ± 10.3
18,"COc1cccc(NC(=O)Cn2c(=O)c3ccccc3n(CC(=O)Nc3cc(Cl)c(OC)cc3OC)c2=O)c1 [TZ59-131, N-(5-Chloro-2,4-dimethoxyphenyl)-2-(3-(2-((3-methoxyphenyl)amino)-2-oxoethyl)-2,4-dioxo-3,4-dihydroquinazolin-1(2H)-yl)acetamide]",39.1 ± 7
19,"COc1cc(OC)c(NC(=O)Cn2c(=O)n(CC(=O)NCCOCCO)c(=O)c3ccccc32)cc1Cl [TZ59-132, N-(5-Chloro-2,4-dimethoxyphenyl)-2-(3-(2-((2-(2-hydroxyethoxy)ethyl)amino)-2-oxoethyl)-2,4-dioxo-3,4-dihydroquinazolin-1(2H)-yl)acetamide]",91.4 ± 17.6
20,"COc1cc(OC)c(NC(=O)Cn2c(=O)n(CC(=O)NCCOCCOCCO)c(=O)c3ccccc32)cc1Cl [TZ59-133, N-(5-Chloro-2,4-dimethoxyphenyl)-2-(3-(2-((2-(2-(2-hydroxyethoxy)ethoxy)ethyl)amino)-2-oxoethyl)-2,4-dioxo-3,4-dihydroquinazolin-1(2H)-yl)acetamide]",204 ± 96
21,"CNC(=O)Cn1c(=O)c2ccccc2n(CC(=O)Nc2cc(Cl)c(OC)cc2OC)c1=O [TZ59-135, N-(5-Chloro-2,4-dimethoxyphenyl)-2-(3-(2-(methylamino)-2-oxoethyl)-2,4-dioxo-3,4-dihydroquinazolin-1(2H)-yl)acetamide]",376 ± 91
